Measurements: article PMC5218480 (PLoS ONE, 2017)

System: MV-4-11 cells
Assay: Gene expression microarray analysis (Affymetrix PrimeView) and GSEA
Format: cell-based, human
Design: RFU PODN (11730768_x_at) / Fold change /veh PODN (11730768_x_at) / RFU LINC00158 (11744669_a_at) / Fold change /veh LINC00158 (11744669_a_at) / RFU DUSP10 (11751237_a_at) / Fold change /veh DUSP10 (11751237_a_at) / RFU ID3 (11757404_x_at) / Fold change /veh ID3 (11757404_x_at) / RFU PLEKHG5 (11737974_s_at) / Fold change /veh PLEKHG5 (11737974_s_at) / RFU LRRC4B (11730491_at) / Fold change /veh LRRC4B (11730491_at) / RFU GIMAP4 (11747438_a_at) / Fold change /veh GIMAP4 (11747438_a_at) / RFU KRT8 (11758183_x_at) / Fold change /veh KRT8 (11758183_x_at) / RFU CNN1 (11734310_a_at) / Fold change /veh CNN1 (11734310_a_at) / RFU VPS37D (11726825_at) / Fold change /veh VPS37D (11726825_at) / RFU C10orf10 (11716522_x_at) / Fold change /veh C10orf10 (11716522_x_at) / RFU KIR2DL2 /// KIR2DL4 /// KIR2DL5A /// KIR2DL5B /// KIR2DS1 /// KIR2DS2 /// KIR2DS3 /// KIR2DS4 /// KIR3DL3 /// KIR3DL3 /// KIR3DS1 (11738374_at) / Fold change /veh KIR2DL2 /// KIR2DL4 /// KIR2DL5A /// KIR2DL5B /// KIR2DS1 /// KIR2DS2 /// KIR2DS3 /// KIR2DS4 /// KIR3DL3 /// KIR3DL3 /// KIR3DS1 (11738374_at) / RFU C1QL1 (11718748_at) / Fold change /veh C1QL1 (11718748_at) / RFU TMPRSS4 (11747572_a_at) / Fold change /veh TMPRSS4 (11747572_a_at) / RFU HAMP (11756126_x_at) / Fold change /veh HAMP (11756126_x_at) / RFU RNFT2 (11725882_a_at) / Fold change /veh RNFT2 (11725882_a_at) / RFU NR4A2 (11747474_a_at) / Fold change /veh NR4A2 (11747474_a_at) / RFU ABCC12 (11746883_a_at) / Fold change /veh ABCC12 (11746883_a_at) / RFU TMEM136 (11760407_x_at) / Fold change /veh TMEM136 (11760407_x_at) / RFU CLDN22 /// WWC2 (11732394_at) / Fold change /veh CLDN22 /// WWC2 (11732394_at) / RFU HLA-DPB1 (11760878_x_at) / Fold change /veh HLA-DPB1 (11760878_x_at) / RFU SPINT1 (11716480_a_at) / Fold change /veh SPINT1 (11716480_a_at) / RFU GAP43 (11754022_s_at) / Fold change /veh GAP43 (11754022_s_at) / RFU A4GNT (11735810_at) / Fold change /veh A4GNT (11735810_at) / RFU PRB3 (11715151_x_at) / Fold change /veh PRB3 (11715151_x_at) / RFU TUBB4B (11761932_at) / Fold change /veh TUBB4B (11761932_at) / RFU CAPN14 (11732068_a_at) / Fold change /veh CAPN14 (11732068_a_at) / RFU TMCC2 (11721928_a_at) / Fold change /veh TMCC2 (11721928_a_at) / RFU IRGQ (11745062_a_at) / Fold change /veh IRGQ (11745062_a_at) / RFU FAM174B (11720279_a_at) / Fold change /veh FAM174B (11720279_a_at) / RFU TMPRSS4 (11748680_a_at) / Fold change /veh TMPRSS4 (11748680_a_at) / RFU FAM212B (11763350_a_at) / Fold change /veh FAM212B (11763350_a_at) / RFU PLEKHG5 (11743358_a_at) / Fold change /veh PLEKHG5 (11743358_a_at) / RFU ZSCAN30 (11745921_a_at) / Fold change /veh ZSCAN30 (11745921_a_at) / RFU CMKLR1 (11741424_a_at) / Fold change /veh CMKLR1 (11741424_a_at) / RFU LOC101060620 /// MAPK8IP1 (11723275_at) / Fold change /veh LOC101060620 /// MAPK8IP1 (11723275_at) / RFU SPTSSB (11747773_x_at) / Fold change /veh SPTSSB (11747773_x_at) / RFU PRSS12 (11739890_at) / Fold change /veh PRSS12 (11739890_at) / RFU BIN1 (11741810_x_at) / Fold change /veh BIN1 (11741810_x_at) / RFU WNT11 (11732464_a_at) / Fold change /veh WNT11 (11732464_a_at) / RFU C10orf10 (11716521_a_at) / Fold change /veh C10orf10 (11716521_a_at) / RFU C5orf56 (11738089_at) / Fold change /veh C5orf56 (11738089_at) / RFU CYB561 (11721691_x_at) / Fold change /veh CYB561 (11721691_x_at) / RFU ANKRD19P (11752326_a_at) / Fold change /veh ANKRD19P (11752326_a_at) / RFU OR2T12 /// OR2T33 /// OR2T8 (11738714_s_at) / Fold change /veh OR2T12 /// OR2T33 /// OR2T8 (11738714_s_at) / RFU VCAN (11748164_a_at) / Fold change /veh VCAN (11748164_a_at) / RFU JSRP1 (11732532_at) / Fold change /veh JSRP1 (11732532_at) / RFU KRTAP10-11 (11738290_x_at) / Fold change /veh KRTAP10-11 (11738290_x_at) / RFU MYO3A (11730013_a_at) / Fold change /veh MYO3A (11730013_a_at) / RFU EBF3 (11725865_a_at) / Fold change /veh EBF3 (11725865_a_at) / RFU CAMK2N1 (11719241_x_at) / Fold change /veh CAMK2N1 (11719241_x_at) / RFU C5orf56 (11738088_a_at) / Fold change /veh C5orf56 (11738088_a_at) / RFU OLFML3 (11715873_a_at) / Fold change /veh OLFML3 (11715873_a_at) / RFU LOC100653217 /// NTM (11731650_a_at) / Fold change /veh LOC100653217 /// NTM (11731650_a_at) / RFU MAPK11 (11762145_a_at) / Fold change /veh MAPK11 (11762145_a_at) / RFU FIZ1 (11724087_x_at) / Fold change /veh FIZ1 (11724087_x_at) / RFU OASL (11726364_x_at) / Fold change /veh OASL (11726364_x_at) / RFU SOX15 (11748057_x_at) / Fold change /veh SOX15 (11748057_x_at) / RFU CD79A (11719716_a_at) / Fold change /veh CD79A (11719716_a_at) / RFU HIST1H1D (11736915_at) / Fold change /veh HIST1H1D (11736915_at) / RFU CASKIN2 (11723855_a_at) / Fold change /veh CASKIN2 (11723855_a_at) / RFU LOC730098 (11760151_x_at) / Fold change /veh LOC730098 (11760151_x_at) / RFU OR4N2 (11742367_at) / Fold change /veh OR4N2 (11742367_at) / RFU PRRT2 (11749266_a_at) / Fold change /veh PRRT2 (11749266_a_at) / RFU SNX32 (11753110_a_at) / Fold change /veh SNX32 (11753110_a_at) / RFU CDHR5 (11726645_a_at) / Fold change /veh CDHR5 (11726645_a_at) / RFU RCAN1 (11760418_a_at) / Fold change /veh RCAN1 (11760418_a_at) / RFU FAM167A (11723789_a_at) / Fold change /veh FAM167A (11723789_a_at) / RFU FAM26E (11764081_at) / Fold change /veh FAM26E (11764081_at) / RFU ISYNA1 (11749810_s_at) / Fold change /veh ISYNA1 (11749810_s_at) / RFU ACY1 (11761880_at) / Fold change /veh ACY1 (11761880_at) / RFU 11764098_at / Fold change /veh 11764098_at / RFU SAMD14 (11745864_x_at) / Fold change /veh SAMD14 (11745864_x_at) / RFU NPB (11741838_a_at) / Fold change /veh NPB (11741838_a_at) / RFU TMPRSS6 (11731388_a_at) / Fold change /veh TMPRSS6 (11731388_a_at) / RFU KRTAP10-2 (11738614_at) / Fold change /veh KRTAP10-2 (11738614_at) / RFU ARHGAP8 /// PRR5-ARHGAP8 (11727945_x_at) / Fold change /veh ARHGAP8 /// PRR5-ARHGAP8 (11727945_x_at) / RFU KRTAP5-7 /// NADSYN1 (11734609_at) / Fold change /veh KRTAP5-7 /// NADSYN1 (11734609_at) / RFU RASL12 (11751679_a_at) / Fold change /veh RASL12 (11751679_a_at) / RFU CDKN2B (11736163_a_at) / Fold change /veh CDKN2B (11736163_a_at) / RFU PRF1 (11729649_at) / Fold change /veh PRF1 (11729649_at) / RFU, ZNF638 /// ZNF638-IT1 / Fold change vs veh, ZNF638 /// ZNF638-IT1 / RFU, PANK3 / Fold change vs veh, PANK3 / RFU, SH3YL1 / Fold change vs veh, SH3YL1 / RFU, ZEB2 / Fold change vs veh, ZEB2 / RFU, NRIP1 / Fold change vs veh, NRIP1 / RFU, PTTG1IP / Fold change vs veh, PTTG1IP / RFU, CAPN2 / Fold change vs veh, CAPN2 / RFU, MED14 / Fold change vs veh, MED14 / RFU, SNORA58 / Fold change vs veh, SNORA58 / RFU, C1orf63 / Fold change vs veh, C1orf63 / RFU, LRRFIP1 / Fold change vs veh, LRRFIP1 / RFU, NDUFAF7 / Fold change vs veh, NDUFAF7 / RFU, SLC12A2 / Fold change vs veh, SLC12A2 / RFU, IBTK / Fold change vs veh, IBTK / RFU, ESF1 / Fold change vs veh, ESF1 / Fold change vs veh, TMEM50B / RFU, TAOK1 / Fold change vs veh, TAOK1 / RFU, ACBD3 / Fold change vs veh, ACBD3 / RFU, TMA16 / Fold change vs veh, TMA16 / RFU, RWDD3 / Fold change vs veh, RWDD3 / RFU, BCAT1 / Fold change vs veh, BCAT1 / RFU, EDEM3 / Fold change vs veh, EDEM3 / RFU, TMEM33 / Fold change vs veh, TMEM33 / RFU, WDR75 / Fold change vs veh, WDR75 / RFU, AHCTF1 / Fold change vs veh, AHCTF1 / RFU, TFRC / Fold change vs veh, TFRC / RFU, ZDHHC17 / Fold change vs veh, ZDHHC17 / RFU, NOM1 / Fold change vs veh, NOM1 / RFU, ARL8B / Fold change vs veh, ARL8B / RFU, ZBTB11 / Fold change vs veh, ZBTB11 / RFU, TAMM41 / Fold change vs veh, TAMM41 / RFU, KIAA1704 /// LOC100996395 / Fold change vs veh, KIAA1704 /// LOC100996395 / RFU, ING1 / Fold change vs veh, ING1 / RFU, TRMT61B / Fold change vs veh, TRMT61B / RFU, FUBP3 / Fold change vs veh, FUBP3 / RFU, TP53 / Fold change vs veh, TP53 / RFU, TNKS2 / Fold change vs veh, TNKS2 / RFU, ZFP14 / Fold change vs veh, ZFP14 / RFU, ACTR2 / Fold change vs veh, ACTR2 / RFU, PPP3R1 / Fold change vs veh, PPP3R1 / RFU, PIK3R1 / Fold change vs veh, PIK3R1 / RFU, HNRNPA1 / Fold change vs veh, HNRNPA1 / RFU, RNF170 / Fold change vs veh, RNF170 / RFU, ZNF28 / Fold change vs veh, ZNF28 / RFU, RNGTT / Fold change vs veh, RNGTT / RFU, OGT / Fold change vs veh, OGT / RFU, BRD1 / Fold change vs veh, BRD1 / RFU, MARS / Fold change vs veh, MARS / RFU, ZNF655 / Fold change vs veh, ZNF655 / RFU, FAHD1 / Fold change vs veh, FAHD1 / RFU, BDP1 / Fold change vs veh, BDP1 / RFU, LRRCC1 / Fold change vs veh, LRRCC1 / RFU, ARID1A / Fold change vs veh, ARID1A / RFU, ZNF146 / Fold change vs veh, ZNF146 / RFU, ZNF330 / Fold change vs veh, ZNF330 / RFU, GPN3 / Fold change vs veh, GPN3 / RFU, C9orf123 / Fold change vs veh, C9orf123 / RFU, N4BP2L2 / Fold change vs veh, N4BP2L2 / RFU, ARFIP1 / Fold change vs veh, ARFIP1 / RFU, FAM179B / Fold change vs veh, FAM179B / RFU, BCL10 / Fold change vs veh, BCL10 / RFU, UHRF1BP1L / Fold change vs veh, UHRF1BP1L / RFU, BET1 / Fold change vs veh, BET1 / RFU, CNOT2 / Fold change vs veh, CNOT2 / RFU, ZNF268 / Fold change vs veh, ZNF268 / Fold change vs veh, ZNF507 / RFU, DGCR2 / Fold change vs veh, DGCR2 / RFU, WDSUB1 / Fold change vs veh, WDSUB1 / Fold change vs veh, HSP90B1 /// MIR3652 / RFU, ADSS / Fold change vs veh, ADSS / RFU, GK / Fold change vs veh, GK / RFU, ZNF148 / Fold change vs veh, ZNF148 / RFU, TAF9 / Fold change vs veh, TAF9 / RFU, SLC1A5 / Fold change vs veh, SLC1A5 / RFU, SLMO2 / Fold change vs veh, SLMO2 / RFU, ABCC4 / Fold change vs veh, ABCC4 / RFU, LOC101060439 /// RAP1B / Fold change vs veh, LOC101060439 /// RAP1B / RFU, RFX7 / Fold change vs veh, RFX7 / RFU, GTPBP10 / Fold change vs veh, GTPBP10 / RFU, CNEP1R1 / Fold change vs veh, CNEP1R1 / RFU, BIVM-ERCC5 /// ERCC5 / Fold change vs veh, BIVM-ERCC5 /// ERCC5 / RFU, ILF3 / Fold change vs veh, ILF3 / RFU 11762660_at / Fold change /veh 11762660_at / RFU VCAN (11757783_s_at) / Fold change /veh VCAN (11757783_s_at) / RFU DDX43 (11728927_at) / Fold change /veh DDX43 (11728927_at) / RFU KRT8 (11758188_x_at) / Fold change /veh KRT8 (11758188_x_at) / RFU NKD1 (11759106_at) / Fold change /veh NKD1 (11759106_at) / RFU SRD5A1 (11742802_a_at) / Fold change /veh SRD5A1 (11742802_a_at) / RFU TPSAB1 /// TPSB2 (11721975_s_at) / Fold change /veh TPSAB1 /// TPSB2 (11721975_s_at) / RFU GSTM3 (11746129_a_at) / Fold change /veh GSTM3 (11746129_a_at) / RFU IL23R (11737362_x_at) / Fold change /veh IL23R (11737362_x_at) / RFU TMEM51 (11727254_a_at) / Fold change /veh TMEM51 (11727254_a_at) / RFU PIWIL2 (11732686_x_at) / Fold change /veh PIWIL2 (11732686_x_at) / RFU ORM1 (11744905_x_at) / Fold change /veh ORM1 (11744905_x_at) / RFU CCDC152 (11743942_at) / Fold change /veh CCDC152 (11743942_at) / RFU ECM1 (11717891_a_at) / Fold change /veh ECM1 (11717891_a_at) / RFU IL23R (11748794_a_at) / Fold change /veh IL23R (11748794_a_at) / RFU TNFAIP8L3 (11732012_x_at) / Fold change /veh TNFAIP8L3 (11732012_x_at) / RFU MBOAT4 (11741988_at) / Fold change /veh MBOAT4 (11741988_at) / RFU 11764193_at / Fold change /veh 11764193_at / RFU TMEM53 (11763286_at) / Fold change /veh TMEM53 (11763286_at) / RFU MAGEB2 (11727129_at) / Fold change /veh MAGEB2 (11727129_at) / RFU TMEM200A (11744735_a_at) / Fold change /veh TMEM200A (11744735_a_at) / RFU CCDC152 (11751479_a_at) / Fold change /veh CCDC152 (11751479_a_at) / RFU FAM211A (11726209_a_at) / Fold change /veh FAM211A (11726209_a_at) / RFU RGS16 (11746705_a_at) / Fold change /veh RGS16 (11746705_a_at) / RFU VCAN (11755009_s_at) / Fold change /veh VCAN (11755009_s_at) / RFU RHOB (11743442_s_at) / Fold change /veh RHOB (11743442_s_at) / RFU RGS16 (11720943_a_at) / Fold change /veh RGS16 (11720943_a_at) / RFU RGS16 (11720944_at) / Fold change /veh RGS16 (11720944_at) / RFU, VPS4B / Fold change vs veh, VPS4B / RFU, CREB1 / Fold change vs veh, CREB1 / RFU, DNAJC13 / Fold change vs veh, DNAJC13 / RFU, GNAQ / Fold change vs veh, GNAQ / RFU, CDK5R1 / Fold change vs veh, CDK5R1 / RFU, ZRANB3 / Fold change vs veh, ZRANB3 / RFU, CUL4A / Fold change vs veh, CUL4A / RFU, CCNY / Fold change vs veh, CCNY / RFU, UFL1 / Fold change vs veh, UFL1 / RFU, COG3 / Fold change vs veh, COG3 / RFU, DIAPH2 / Fold change vs veh, DIAPH2 / RFU, SKA2 / Fold change vs veh, SKA2 / RFU, AFF3 / Fold change vs veh, AFF3 / RFU, LMF1 / Fold change vs veh, LMF1 / RFU, IPO11 / Fold change vs veh, IPO11 / RFU, DFFB / Fold change vs veh, DFFB / RFU, FOXP1 / Fold change vs veh, FOXP1 / RFU, CARD8 / Fold change vs veh, CARD8 / RFU, STRN3 / Fold change vs veh, STRN3 / RFU, ADK / Fold change vs veh, ADK / RFU, RASSF2 / Fold change vs veh, RASSF2 / RFU, WIPF1 / Fold change vs veh, WIPF1 / RFU, LARP1B / Fold change vs veh, LARP1B / RFU, RASA1 / Fold change vs veh, RASA1 / RFU, RB1 / Fold change vs veh, RB1 / RFU, PPFIA1 / Fold change vs veh, PPFIA1 / RFU, MAT2A / Fold change vs veh, MAT2A / RFU, CCT5 / Fold change vs veh, CCT5 / RFU, WDR92 / Fold change vs veh, WDR92 / RFU, CUX1 / Fold change vs veh, CUX1 / RFU, TTC7A / Fold change vs veh, TTC7A / RFU, TMEM135 / Fold change vs veh, TMEM135 / RFU, DEPTOR / Fold change vs veh, DEPTOR / RFU, CPM / Fold change vs veh, CPM / RFU, DNAJB6 / Fold change vs veh, DNAJB6 / RFU, CACNA2D3 / Fold change vs veh, CACNA2D3 / RFU, DTX4 / Fold change vs veh, DTX4 / RFU, TFCP2 / Fold change vs veh, TFCP2 / RFU, GMCL1 /// GMCL1P1 / Fold change vs veh, GMCL1 /// GMCL1P1 / RFU, AEBP2 / Fold change vs veh, AEBP2 / RFU, SNHG1 /// SNORD22 /// SNORD25 /// SNORD26 /// SNORD27 /// SNORD28 /// SNORD29 /// SNORD31 / Fold change vs veh, SNHG1 /// SNORD22 /// SNORD25 /// SNORD26 /// SNORD27 /// SNORD28 /// SNORD29 /// SNORD31 / Fold change (Aza/veh), C12orf56 (ProbeSet 11735607_a_at) / Fold change (ACY-1035/veh), C12orf56 (ProbeSet 11735607_a_at) / Fold change (Aza/veh), FGFR1OP (ProbeSet 11751329_s_at) / Fold change (ACY-1035/veh), FGFR1OP (ProbeSet 11751329_s_at) / Fold change (Aza/veh), VPS36 (ProbeSet 11739960_a_at) / Fold change (ACY-1035/veh), VPS36 (ProbeSet 11739960_a_at) / RFU SYPL1 (11715823_x_at) / Fold change /veh SYPL1 (11715823_x_at) / RFU IGFBP7 (11715501_s_at) / Fold change /veh IGFBP7 (11715501_s_at) / RFU REEP3 (11722064_at) / Fold change /veh REEP3 (11722064_at) / RFU IGLL1 (11728026_x_at) / Fold change /veh IGLL1 (11728026_x_at): dose or concentration left out as unconfirmed
Conditions: MV-4-11 cells, 48 hours

SMILES: Nc1ccc(-c2cccs2)cc1NC(=O)c1ccc2c(c1)cc(C1CC1)n2CCN1CCOCC1 [ACY-1035]
- Fold change /veh ZSCAN30 (11745921_a_at): 1.04
